According to ChEMBL document CHEMBL3872241, “Synthesis and bioactivity evaluation of 2,3-diaryl acrylonitrile derivatives as potential anticancer agents” (Bioorg Med Chem Lett, 2017):
Calls of active or inactive are those of the source. The rule behind the calls is not given here.

Key:
[1] = Cell cycle arrest in human HeLa cells assessed as accumulation at G2/M phase at 0.1 to 1 uM after 24 hrs by propidium iodide-based FACS analysis (reference value: 7.12%); type: functional
[2] = Cell cycle arrest in human HeLa cells assessed as accumulation at S phase at 0.1 to 1 uM after 24 hrs by propidium iodide-based FACS analysis (reference value: 31.26%); type: functional
HeLa [3] = assay: Selectivity index, ratio of IC50 for human L02 cells to IC50 for human HeLa cells; type: functional
HeLa [4] = assay: Induction of apoptosis in human HeLa cells assessed as increase in early apoptotic cells at 0.1 uM after 24 hrs by Annexin V-FITC/propidium iodide based FACS analysis; type: functional, cell-based
[5] = Cytotoxicity against human HeLa cells assessed as cell growth inhibition after 48 hrs by MTT assay; type: functional, cell-based
HCT-116 [6] = assay: Selectivity index, ratio of IC50 for human L02 cells to IC50 for human HCT116 cells; type: functional
Bel-7402 [7] = assay: Selectivity index, ratio of IC50 for human L02 cells to IC50 for human Bel7402 cells; type: functional
[8] = Cytotoxicity against human Bel7402 cells assessed as cell growth inhibition after 48 hrs by MTT assay; type: functional, cell-based; conditions: Bel-7402, 48 h
[9] = Cytotoxicity against human L02 cells assessed as cell growth inhibition after 48 hrs by MTT assay; type: toxicity, cell-based
HeLa [10] = assay: Antimigratory activity in human HeLa cells at 1 uM after 24 hrs by wound-scratch assay; type: functional, cell-based
[11] = Cytotoxicity against human HCT116 cells assessed as cell growth inhibition after 48 hrs by MTT assay; type: functional, cell-based; conditions: HCT-116, 48 h
[12] = Cell cycle arrest in human HeLa cells assessed as accumulation at G0/G1 phase at 0.1 to 1 uM after 24 hrs by propidium iodide-based FACS analysis (reference value: 61.71%); type: functional
[13] = Cytotoxicity against human Caco2 cells assessed as cell growth inhibition at 0.3 uM by SRB assay; type: functional; conditions: Caco-2, read-out: GI
HCT-116 [14] = assay: Cytotoxicity against human HCT116 cells assessed as cell growth inhibition at 100 uM after 48 hrs by MTT assay; type: functional
[15] = Cell cycle arrest in human HeLa cells assessed as accumulation at G2/M phase at 50 uM after 24 hrs by propidium iodide-based FACS analysis (reference value: 7.12%); type: functional
Bel-7402 [16] = assay: Cytotoxicity against human Bel7402 cells assessed as cell growth inhibition at 100 uM after 48 hrs by MTT assay; type: functional
[17] = Cell cycle arrest in human HeLa cells assessed as accumulation at S phase at 50 uM after 24 hrs by propidium iodide-based FACS analysis (reference value: 31.26%); type: functional
[18] = Cell cycle arrest in human HeLa cells assessed as accumulation at G0/G1 phase at 50 uM after 24 hrs by propidium iodide-based FACS analysis (reference value: 61.71%); type: functional

SMILES	Activity [1] [%]	Activity [2] [%]	Ratio IC50 (HeLa [3])	Activity (HeLa [4])	IC50 [5] [µM]	Ratio IC50 (HCT-116 [6])	Ratio IC50 (Bel-7402 [7])	IC50 [8] [µM]	IC50 at 48 h [9] [µM]	Activity (HeLa [10])	IC50 [11] [µM]	Activity [12] [%]	inhibition of growth at 0.3 µM [13] [%]	growth inhibition (GI) (HCT-116 [14])	Activity [15] [%]	growth inhibition (GI) (Bel-7402 [16])	Activity [17] [%]	Activity [18] [%]
CC(=O)O[C@H]1C(=O)[C@@]2(C)[C@H]([C@H](OC(=O)c3ccccc3)[C@]3(O)C[C@H](OC(=O)[C@H](O)[C@@H](NC(=O)c4ccccc4)c4ccccc4)C(C)=C1C3(C)C)[C@]1(OC(C)=O)CO[C@@H]1C[C@@H]2O [PACLITAXEL]	70.6	28.5	>7.72	Active	13	>1000	>1000	< 0.1	> 100	Active	< 0.1	1.03						
COc1ccc(/C=C\c2cc(OC)cc(OC)c2)cc1 [8Z-3,4',5-TRIMETHOXYSTILBENE]													80					
Oc1ccc(/C=C/c2cc(O)cc(O)c2)cc1 [RESVERATROL]					120			139			62.6			Active	6.29	Active	21.8	72
